The test system of this assay is P388 leukemia ip, CD2F1 mice, survival T/C. Briefly: NCI In Vivo Anticancer Drug Screen. Data for tumor model P388 Leukemia (intraperitoneal) in CD2F1 (CDF1) mice. The following applies: endpoint: median survival time, higher = longer survival. In a few lines: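 Mice carrying the transplanted tumor received test compound or vehicle. Survival was recorded in each group, and the value is the treated-group measurement divided by that of the vehicle-treated control group.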

[1] abbreviates: dose: 50.0 mg/kg/injection, schedule: Q01DX009 (ip), vehicle: Klucel (hydroxypropylcellulose) (HPC).
Where [2] appears, read: dose: 50.0 mg/kg/injection, schedule: Q01DX009 (ip), vehicle: saline with Tween-80.
The mark [3] stands for this setting: dose: 100.0 mg/kg/injection, schedule: Q01DX009 (ip), vehicle: saline with Tween-80.
The mark [4] stands for this setting: dose: 200.0 mg/kg/injection, schedule: Q01DX009 (ip), vehicle: saline with Tween-80.
Setting [5] is: dose: 400.0 mg/kg/injection, schedule: Q01DX009 (ip), vehicle: saline with Tween-80.
Setting [6] is: dose: 100.0 mg/kg/injection, schedule: Q01DX001 (ip), vehicle: Klucel (hydroxypropylcellulose) (HPC).
[7] abbreviates: dose: 200.0 mg/kg/injection, schedule: Q01DX001 (ip), vehicle: Klucel (hydroxypropylcellulose) (HPC).
Setting [8] is: dose: 60.0 mg/kg/injection, schedule: Q01DX005 (ip), vehicle: saline with Tween-80.
Setting [9] is: dose: 120.0 mg/kg/injection, schedule: Q01DX005 (ip), vehicle: saline with Tween-80.
Setting [10] is: dose: 240.0 mg/kg/injection, schedule: Q01DX005 (ip), vehicle: saline with Tween-80.

Data on 19 compounds can be found in PubChem BioAssay AID330 (DTP/NCI, 2004).

Several values for one entry are separate records, joined by “and”; a condition that tells them apart may be missing. Equal values may be shown once. Toxic doses and inconclusive results are not listed.

Take `CC1=C/C(=N\[Se]c2ccccc2)C(=O)C(C)=C1`: the T/C was 100 % of control (dose: 100.0 mg/kg/injection, schedule: Q04DX003 (ip), vehicle: Klucel (hydroxypropylcellulose) (HPC)); 91 % of control (dose: 200.0 mg/kg/injection, schedule: Q04DX003 (ip), vehicle: Klucel (hydroxypropylcellulose) (HPC)); 96 % of control (dose: 400.0 mg/kg/injection, schedule: Q04DX003 (ip), vehicle: Klucel (hydroxypropylcellulose) (HPC)).
As to `CC(=NCc1ccccc1)c1ccccc1O`, the T/C is, setting by setting: under setting [1], 99 % of control; under setting [2], 106 % of control; (dose: 100.0 mg/kg/injection, schedule: Q01DX009 (ip), vehicle: Klucel (hydroxypropylcellulose) (HPC)) 93 % of control; under setting [3], 116 % of control; (dose: 200.0 mg/kg/injection, schedule: Q01DX009 (ip), vehicle: Klucel (hydroxypropylcellulose) (HPC)) 92 % of control; under setting [4], 98 % of control. Further, under setting [5], the T/C was 109 % of control.
With `Cc1nn2cc(-c3ccc4ccccc4c3)nc2[nH]c1=O`, the T/C was 100 % of control under setting [6]; 99 % of control under setting [7]; 100 % of control (dose: 400.0 mg/kg/injection, schedule: Q01DX001 (ip), vehicle: Klucel (hydroxypropylcellulose) (HPC)).
For the compound `O=C1CC(=O)N2CCSC2=N1`, the T/C is, setting by setting: (dose: 50.0 mg/kg/injection, schedule: Q04DX003 (ip), vehicle: saline with Tween-80) 102 % of control; (dose: 100.0 mg/kg/injection, schedule: Q04DX003 (ip), vehicle: saline with Tween-80) 101 % of control; (dose: 200.0 mg/kg/injection, schedule: Q04DX003 (ip), vehicle: saline with Tween-80) 102 % of control; (dose: 400.0 mg/kg/injection, schedule: Q04DX003 (ip), vehicle: saline with Tween-80) 98 % of control.
Turning to `CCCCCCCCCCCCOP(=O)(CC(=O)NCc1cc(C(C)(C)C)c(O)c(C(C)(C)C)c1)OCCCCCCCCCCCC`, the T/C was 92 % of control under setting [2], 92 % of control under setting [3] and 90 % of control under setting [4].
For `O=C1NC(O)c2cc(Br)ccc2O1` (stereo not given), the T/C (dose: 50.0 mg/kg/injection, schedule: Q01DX005 (ip), vehicle: Klucel (hydroxypropylcellulose) (HPC)) is 100 % of control; the T/C (dose: 100.0 mg/kg/injection, schedule: Q01DX005 (ip), vehicle: Klucel (hydroxypropylcellulose) (HPC)) was 104 % of control; the T/C (dose: 200.0 mg/kg/injection, schedule: Q01DX005 (ip), vehicle: Klucel (hydroxypropylcellulose) (HPC)) was 106 % of control.
Consider `C=C1C(=O)C23C(OC(=O)CCCCCCCCCCCCC)C1CCC2C12COC3(O)C(O)C1C(C)(C)CCC2O` (stereo not given), for which the T/C (dose: 3.75 mg/kg/injection, schedule: Q01DX009 (ip), vehicle: saline with Tween-80) is 104 % of control; the T/C (dose: 7.5 mg/kg/injection, schedule: Q01DX009 (ip), vehicle: saline with Tween-80) was 109 % of control; the T/C (dose: 15.0 mg/kg/injection, schedule: Q01DX009 (ip), vehicle: saline with Tween-80) was 112 % of control.
For `CS(=O)(=O)OCCN(CCOS(C)(=O)=O)c1ccc(C=Nc2ccc(-c3csc(COc4ccccc4)n3)cc2)cc1`, the T/C by setting is: (dose: 12.5 mg/kg/injection, schedule: Q01DX009 (ip), vehicle: Klucel (hydroxypropylcellulose) (HPC)) 150 % of control and 151 % of control; (dose: 25.0 mg/kg/injection, schedule: Q01DX009 (ip), vehicle: Klucel (hydroxypropylcellulose) (HPC)) 151 % of control and 154 % of control and 164 % of control; (dose: 25.0 mg/kg/injection, schedule: Q01DX009 (oral), vehicle: Klucel (hydroxypropylcellulose) (HPC)) 101 % of control and 104 % of control; under setting [1], 162 % of control and 164 % of control and 166 % of control; (dose: 50.0 mg/kg/injection, schedule: Q01DX009 (oral), vehicle: Klucel (hydroxypropylcellulose) (HPC)) 101 % of control and 106 % of control; (dose: 100.0 mg/kg/injection, schedule: Q01DX009 (oral), vehicle: Klucel (hydroxypropylcellulose) (HPC)) 102 % of control and 108 % of control. The T/C (dose: 200.0 mg/kg/injection, schedule: Q01DX009 (oral), vehicle: Klucel (hydroxypropylcellulose) (HPC)) was 107 % of control; the T/C (dose: 400.0 mg/kg/injection, schedule: Q01DX009 (ip), vehicle: Klucel (hydroxypropylcellulose) (HPC)) is 112 % of control; the T/C (dose: 400.0 mg/kg/injection, schedule: Q01DX009 (oral), vehicle: Klucel (hydroxypropylcellulose) (HPC)) is 109 % of control; the T/C (dose: 800.0 mg/kg/injection, schedule: Q01DX009 (oral), vehicle: Klucel (hydroxypropylcellulose) (HPC)) is 109 % of control.
Regarding `O=C(O)[C@@H]1[C@H](C(=O)O)[C@H](C(=O)O)C[C@@H]1C(=O)O`, the T/C runs as follows: (dose: 100.0 mg/kg/injection, schedule: Q01DX009 (ip), vehicle: saline) 108 % of control; (dose: 200.0 mg/kg/injection, schedule: Q01DX009 (ip), vehicle: saline) 105 % of control.
`Cc1cc(NC(=O)NCCOc2ccc(N3C(N)=NC(N)=NC3(C)C)cc2Cl)ccc1S(=O)(=O)F`: the T/C (dose: 12.5 mg/kg/injection, schedule: Q04DX003 (ip), vehicle: saline sonified) was 100 % of control; the T/C (dose: 25.0 mg/kg/injection, schedule: Q04DX003 (ip), vehicle: saline sonified) was 100 % of control; the T/C (dose: 50.0 mg/kg/injection, schedule: Q04DX003 (ip), vehicle: saline sonified) was 100 % of control.
Turning to `COc1cc(OC)c(C(C)=O)c(O)c1C`, the T/C runs as follows: (dose: 12.5 mg/kg/injection, schedule: Q01DX009 (ip), vehicle: distilled water + Tween-80) 94 % of control; (dose: 25.0 mg/kg/injection, schedule: Q01DX009 (ip), vehicle: distilled water + Tween-80) 101 % of control; (dose: 50.0 mg/kg/injection, schedule: Q01DX009 (ip), vehicle: distilled water + Tween-80) 98 % of control; (dose: 100.0 mg/kg/injection, schedule: Q01DX009 (ip), vehicle: distilled water + Tween-80) 99 % of control; (dose: 200.0 mg/kg/injection, schedule: Q01DX009 (ip), vehicle: distilled water + Tween-80) 109 % of control; (dose: 400.0 mg/kg/injection, schedule: Q01DX009 (ip), vehicle: distilled water + Tween-80) 100 % of control.
With `CC1=C(C(=O)Nc2ccccc2C)C(c2ccco2)C(C(=O)Nc2ccccc2C)=C(C)N1`, the T/C reads like this: under setting [8], 96 % of control; under setting [9], 94 % of control; under setting [10], 97 % of control.
As for `CCOC1=CC(=O)/C(=C/O[Si](C)(C)C)CC1`, the T/C reads like this: under setting [2], 103 % of control; under setting [3], 99 % of control.
Consider `CC(=O)OCCOCNC(=S)NCc1ccco1`, for which the T/C under setting [8] was 106 % of control, the T/C under setting [9] was 102 % of control and the T/C under setting [10] is 98 % of control.
Regarding `CN1CCc2[nH]c3ccccc3c2C1`, the T/C is, setting by setting: (dose: 100.0 mg/kg/injection, schedule: Q04DX002 (ip), vehicle: Klucel (hydroxypropylcellulose) (HPC)) 100 % of control; (dose: 200.0 mg/kg/injection, schedule: Q04DX002 (ip), vehicle: Klucel (hydroxypropylcellulose) (HPC)) 102 % of control.
Consider `O=C1C=C(c2ccccc2)C(c2ccccc2)C1` (stereo not given), for which the T/C is 89 % of control under setting [2], 93 % of control under setting [3], 93 % of control under setting [4] and 93 % of control under setting [5].
In the case of `CCN(CC)CCCNc1cc(OC)c(Nc2ccccc2)c2cccnc12`, the T/C reads like this: (dose: 3.12 mg/kg/injection, schedule: Q01DX005 (ip), vehicle: suspension in saline) 112 % of control; (dose: 6.25 mg/kg/injection, schedule: Q01DX005 (ip), vehicle: suspension in saline) 100 % of control; (dose: 12.5 mg/kg/injection, schedule: Q01DX005 (ip), vehicle: suspension in saline) 99 % of control.
Consider `C=C1C2CCC3C(CCC4C5(C)CCCC43CN3CCOC35)(C2)C1O` (stereo not given), for which the T/C (dose: 1.0 mg/kg/injection, schedule: Q01DX009 (ip), vehicle: Klucel (hydroxypropylcellulose) (HPC)) was 95 % of control; the T/C (dose: 2.0 mg/kg/injection, schedule: Q01DX009 (ip), vehicle: Klucel (hydroxypropylcellulose) (HPC)) was 97 % of control; the T/C (dose: 4.0 mg/kg/injection, schedule: Q01DX009 (ip), vehicle: Klucel (hydroxypropylcellulose) (HPC)) was 98 % of control; the T/C (dose: 8.0 mg/kg/injection, schedule: Q01DX009 (ip), vehicle: Klucel (hydroxypropylcellulose) (HPC)) is 97 % of control.
On to `O=C(O)C1(Cc2ccc(O)c(O)c2)NCCS1` (stereo not given), for which the T/C runs as follows: under setting [6], 104 % of control; under setting [7], 100 % of control.
